The target in test [1] is T1, SIK2 (Homo sapiens, UniProt Q9H0K1). The test is described as follows: SIK2 Enzymatic Assay Version 1 (ADP Glo). The format is biochemical. To be noted: enzyme 0.6 nM, 160 μM ATP and 140 μM HDAC5tide (each 2× final concentration); 30 minutes pre-incubation, 4 hours; ADPGlo luminescence; read-out: SIK2 ADP Glo IC50 (μM) (Test Example 1). The method in brief: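 Room-temperature ADP-Glo luminescence assay; SIK2 added at 0.6 nM (2× final) and preincubated with compound for 30 min. Reaction stopped with ADP-Glo Reagent for 40 min, then detection reagent for at least 30 min; no-peptide (ATP-only) wells served as negative control.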
T1 sequence (Q9H0K1 whole entry, species assumed): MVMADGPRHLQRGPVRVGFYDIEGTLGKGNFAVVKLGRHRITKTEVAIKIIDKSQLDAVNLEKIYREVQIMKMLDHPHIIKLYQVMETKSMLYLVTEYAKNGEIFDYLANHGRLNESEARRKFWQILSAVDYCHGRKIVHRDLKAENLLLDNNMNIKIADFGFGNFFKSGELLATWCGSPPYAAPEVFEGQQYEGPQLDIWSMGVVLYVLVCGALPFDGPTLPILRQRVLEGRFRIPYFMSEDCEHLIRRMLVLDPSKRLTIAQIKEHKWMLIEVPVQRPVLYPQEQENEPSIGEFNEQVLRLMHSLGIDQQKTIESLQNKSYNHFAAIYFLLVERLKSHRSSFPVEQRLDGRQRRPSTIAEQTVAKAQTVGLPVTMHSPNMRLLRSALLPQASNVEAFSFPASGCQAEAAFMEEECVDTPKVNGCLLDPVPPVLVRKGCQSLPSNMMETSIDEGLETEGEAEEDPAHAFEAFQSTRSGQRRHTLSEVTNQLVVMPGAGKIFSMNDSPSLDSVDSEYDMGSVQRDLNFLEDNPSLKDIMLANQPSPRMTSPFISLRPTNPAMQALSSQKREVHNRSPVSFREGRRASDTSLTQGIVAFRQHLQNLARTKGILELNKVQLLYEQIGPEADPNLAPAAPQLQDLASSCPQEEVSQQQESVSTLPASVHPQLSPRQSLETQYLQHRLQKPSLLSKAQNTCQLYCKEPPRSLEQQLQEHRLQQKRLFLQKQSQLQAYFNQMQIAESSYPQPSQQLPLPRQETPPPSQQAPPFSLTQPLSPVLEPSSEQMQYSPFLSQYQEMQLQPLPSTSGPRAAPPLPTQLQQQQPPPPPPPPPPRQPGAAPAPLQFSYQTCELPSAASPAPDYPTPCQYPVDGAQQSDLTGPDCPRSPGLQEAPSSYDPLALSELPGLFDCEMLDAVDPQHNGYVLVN

For test [2], the target named is T1, SIK2. The test is described as follows: SIK2 Enzymatic Assay High Version 2 (High ATP). The format is biochemical. The method in brief:
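At room temperature, enzyme (6 nM, 2× final) was preincubated with compound for 30 min, then 6 mM ATP and 400 μM HDAC5tide (both 2× final) were added for 2 h. ADP formed was measured by ADP-Glo Max (2 h reagent, 1 h detection) using luminescence.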

What is called IC50 is the concentration that gives 50% inhibition. The pIC50 is the negative decadic logarithm of the IC50, by convention in mol/L. A lower pIC50 goes with a high IC50.

Each structure is given as a SMILES string. pIC50: −log10 of the molar value. Some results are limits rather than exact numbers.

Consider `Cc1cc(-c2ccn3nc(NC(=O)C4CC4)cc3c2)c(O[C@H]2C[C@H]3CC[C@@H](C2)N3C)cn1` [Example 138, N-(5-(2-methyl-5-(((1R,3r,5S)-8-methyl-8-azabicyclo[3.2.1]octan-3-yl)oxy)pyridin-4-yl)pyrazolo[1,5-a]pyridin-2-yl)cyclopropanecarboxamide], for which, on SIK2 [1], the IC50 is 0.000854 µM. At SIK2 [2], this compound showed a pIC50 of 7.89.

As to `Cc1cc(-c2ccn3nc(NC(=O)C4CC4)cc3c2)c(O[C@H]2CCN(C)C2)cn1` [Example 139, N-[5-[2-methyl-5-[(3S)-1-methylpyrrolidin-3-yl]oxy-4-pyridyl]pyrazolo[1,5-a]pyridin-2-yl]cyclopropanecarboxamide], the IC50 at SIK2 [1] came to 0.0033 µM. Further, on SIK2 [2], the pIC50 is 7.14.

Regarding `Cc1cc(-c2ccn3nc(NC(=O)C4CC4)cc3c2)c(OC[C@@H]2CNCCO2)cn1` [Example 143, N-[5-[2-methyl-5-[[(2S)-morpholin-2-yl]methoxy]-4-pyridyl]pyrazolo[1,5-a]pyridin-2-yl]cyclopropanecarboxamide], the IC50 on SIK2 [1] stood at 0.000664 µM. This compound also had a pIC50 at SIK2 [2] of 7.90.

With `Cc1cc(-c2ccn3nc(NC(=O)C4CC4)cc3c2)c(OCC2(N)COC2)cn1` [Example 144, N-[5-[5-[(3-aminooxetan-3-yl)methoxy]-2-methyl-4-pyridyl]pyrazolo[1,5-a]pyridin-2-yl]cyclopropanecarboxamide], the IC50 on SIK2 [1] came to 0.00212 µM. On SIK2 [2], this compound had a negative-log IC50 (pIC50) of 7.44.

Consider `Cc1cc(-c2ccn3nc(NC(=O)C4CC4)cc3c2)c(OCC2(N)CC(F)(F)C2)cn1` [Example 145, N-[5-[5-[(1-amino-3,3-difluoro-cyclobutyl)methoxy]-2-methyl-4-pyridyl]pyrazolo[1,5-a]pyridin-2-yl]cyclopropanecarboxamide], for which the IC50 on SIK2 [1] is 0.000642 µM. In addition, the negative logarithm of the IC50 (pIC50) on SIK2 [2] was 7.79.

Regarding `Cc1cc(-c2ccn3nc(NC(=O)C4CC4)cc3c2)c(OC[C@H]2CC[C@@H](O)CC2)cn1` [Example 148, cis-N-[5-[5-[(4-hydroxycyclohexyl)methoxy]-2-methyl-4-pyridyl]pyrazolo[1,5-a]pyridin-2-yl]cyclopropanecarboxamide], the IC50 on SIK2 [1] came out at 0.00436 µM. In addition, on SIK2 [2], the pIC50 was 7.23.

Take `Cc1cc(-c2ccn3nc(NC(=O)C4CC4)cc3c2)c(OC[C@H](N)C(C)(C)C)cn1` [Example 150, N-[5-[5-[(2R)-2-amino-3,3-dimethyl-butoxy]-2-methyl-4-pyridyl]pyrazolo[1,5-a]pyridin-2-yl]cyclopropanecarboxamide]: the IC50 on SIK2 [1] is 0.00644 µM. Moreover, the pIC50 against SIK2 [2] was 6.49.

For `Cc1cc(-c2ccn3nc(NC(=O)C4CC4)cc3c2)c(O[C@@H]2CC[C@H](N)C2)cn1` [Example 152, N-[5-[5-[(1R,3S)-3-aminocyclopentoxy]-2-methyl-4-pyridyl]pyrazolo[1,5-a]pyridin-2-yl]cyclopropanecarboxamide], on SIK2 [1], the IC50 came out at 0.00378 µM. This compound had a pIC50 at SIK2 [2] of 7.15.

Consider `Cc1cc(-c2ccn3nc(NC(=O)C4CC4)cc3c2)c(O[C@@H]2CC[C@@H](N)C2)cn1` [Example 153, N-[5-[5-[(1R,3R)-3-aminocyclopentoxy]-2-methyl-4-pyridyl]pyrazolo[1,5-a]pyridin-2-yl]cyclopropanecarboxamide], for which, at SIK2 [1], the IC50 was 0.000688 µM. The pIC50 against SIK2 [2] is 7.86.

Consider `Cc1cc(-c2ccn3nc(NC(=O)C4CC4)cc3c2)c(OCC2(N)CCC2)cn1` [Example 154, N-[5-[5-[(1-aminocyclobutyl)methoxy]-2-methyl-4-pyridyl]pyrazolo[1,5-a]pyridin-2-yl]cyclopropanecarboxamide], for which the IC50 on SIK2 [1] was determined as 0.00116 µM. Further, the pIC50 against SIK2 [2] is 7.62.

Regarding `Cc1cc(-c2ccn3nc(NC(=O)C4CC4)cc3c2)c(OCC2(N)CCCC2)cn1` [Example 155, N-[5-[5-[(1-aminocyclopentyl)methoxy]-2-methyl-4-pyridyl]pyrazolo[1,5-a]pyridin-2-yl]cyclopropanecarboxamide], at SIK2 [1], the IC50 stood at 0.00108 µM. Moreover, the pIC50 on SIK2 [2] is 7.81.

Consider `CNC1(COc2cnc(C)cc2-c2ccn3nc(NC(=O)C4CC4)cc3c2)CCC1` [Example 156, N-[5-[2-methyl-5-[[1-(methylamino)cyclobutyl]methoxy]-4-pyridyl]pyrazolo[1,5-a]pyridin-2-yl]cyclopropanecarboxamide], for which the IC50 at SIK2 [1] came out at 0.00369 µM. In addition, the pIC50 at SIK2 [2] is 7.10.

For `Cc1cc(-c2ccn3nc(NC(=O)C4CC4)cc3c2)c(O[C@H]2CC[C@H](O)CC2)cn1` [Example 158, trans-N-[5-[5-(4-hydroxycyclohexoxy)-2-methyl-4-pyridyl]pyrazolo[1,5-a]pyridin-2-yl]cyclopropanecarboxamide], on SIK2 [1], the half-maximal inhibitory concentration (IC50) came out at 0.00132 µM. Also, on SIK2 [2], the pIC50 was 7.74.

As to `Cc1cc(-c2ccn3nc(NC(=O)C4CC4)cc3c2)c(OC[C@H]2CNCCO2)cn1` [Example 166, N-[5-[2-methyl-5-[[(2R)-morpholin-2-yl]methoxy]-4-pyridyl]pyrazolo[1,5-a]pyridin-2-yl]cyclopropanecarboxamide], the IC50 at SIK2 [1] is 0.00101 µM. The pIC50 against SIK2 [2] is 7.80.

Turning to `Cc1cc(-c2ccn3nc(NC(=O)C4CC4)cc3c2)c(OC[C@@H]2CNC(C)(C)CO2)cn1` [Example 167, N-[5-[5-[[(2S)-5,5-dimethylmorpholin-2-yl]methoxy]-2-methyl-4-pyridyl]pyrazolo[1,5-a]pyridin-2-yl]cyclopropanecarboxamide], the IC50 at SIK2 [1] worked out at 0.00059 µM. On SIK2 [2], this compound showed a negative-log IC50 (pIC50) of 8.06.

Turning to `Cc1cc(-c2ccn3nc(NC(=O)C4CC4)cc3c2)c(OC[C@@H]2CN[C@H](C)CO2)cn1` [Example 168, N-[5-[2-methyl-5-[[(2S,5R)-5-methylmorpholin-2-yl]methoxy]-4-pyridyl]pyrazolo[1,5-a]pyridin-2-yl]cyclopropanecarboxamide], the IC50 at SIK2 [1] came to 0.000382 µM. The pIC50 on SIK2 [2] is 8.33.

`Cc1cc(-c2ccn3nc(NC(=O)C4CC4)cc3c2)c(OCC2(F)CN(C)C2)cn1` [Example 169, N-[5-[5-[(3-fluoro-1-methyl-azetidin-3-yl)methoxy]-2-methyl-4-pyridyl]pyrazolo[1,5-a]pyridin-2-yl]cyclopropanecarboxamide]: the IC50 on SIK2 [1] turned out to be 0.00307 µM. On SIK2 [2], the pIC50 was 7.29.

As to `Cc1cc(-c2ccn3nc(NC(=O)C4CC4)cc3c2)c(O[C@H]2C[C@H](N)C2)cn1` [Example 170, trans-N-[5-[5-(3-aminocyclobutoxy)-2-methyl-4-pyridyl]pyrazolo[1,5-a]pyridin-2-yl]cyclopropanecarboxamide], the IC50 at SIK2 [1] stood at 0.000853 µM. Further, the pIC50 against SIK2 [2] is 7.89.

For `Cc1cc(-c2ccn3nc(NC(=O)C4CC4)cc3c2)c(OC[C@H]2C[C@@H](N)C2)cn1` [Example 171, cis-N-[5-[5-[(3-aminocyclobutyl)methoxy]-2-methyl-4-pyridyl]pyrazolo[1,5-a]pyridin-2-yl]cyclopropanecarboxamide], at SIK2 [1], the IC50 turned out to be 0.000617 µM. At SIK2 [2], this compound gave a pIC50 of 7.91.

With `N#Cc1cc(-c2ccn3nc(NC(=O)C4CC4)cc3c2)c(OC[C@H]2C[C@@H](N)C2)cn1` [Example 175, N-(5-(5-(((1s,3s)-3-aminocyclobutyl)methoxy)-2-cyanopyridin-4-yl)pyrazolo[1,5-a]pyridin-2-yl)cyclopropanecarboxamide], at SIK2 [1], the IC50 was found to be 0.000443 µM. Besides, the pIC50 at SIK2 [2] is 8.07.

As for `N#Cc1cc(-c2ccn3nc(NC(=O)C4CC4)cc3c2)c(OC[C@H]2C[C@@H](Nc3ccccn3)C2)cn1` [Example 176, cis-N-[5-[2-cyano-5-[[3-(2-pyridylamino)cyclobutyl]methoxy]-4-pyridyl]pyrazolo[1,5-a]pyridin-2-yl]cyclopropanecarboxamide], on SIK2 [1], the IC50 is 0.00196 µM. At SIK2 [2], this compound gave a pIC50 of 7.26.

In the case of `Cn1ccc(N[C@H]2C[C@@H](COc3cnc(C#N)cc3-c3ccn4nc(NC(=O)C5CC5)cc4c3)C2)n1` [Example 177, cis-N-[5-[2-cyano-5-[[3-[(1-methylpyrazol-3-yl)amino]cyclobutyl]methoxy]-4-pyridyl]pyrazolo[1,5-a]pyridin-2-yl]cyclopropanecarboxamide], the IC50 at SIK2 [1] came out at 0.00137 µM. The compound further gave a pIC50 against SIK2 [2] of 7.53.

Consider `Cc1cc(-c2ccn3nc(Nc4ccn(C)n4)cc3c2)c(O[C@H]2CC[C@H](O)CC2)cn1` [Example 181, trans-4-[[6-methyl-4-[2-[(1-methylpyrazol-3-yl)amino]pyrazolo[1,5-a]pyridin-5-yl]-3-pyridyl]oxy]cyclohexanol], for which, at SIK2 [1], the concentration for half-maximal inhibition (IC50) came out at 0.00236 µM. Also, the negative logarithm of the IC50 (pIC50) on SIK2 [2] was 7.50.

`Cc1cc(-c2ccn3nc(Nc4ccccn4)cc3c2)c(O[C@H]2CC[C@H](O)CC2)cn1` [Example 182, trans-4-[[6-methyl-4-[2-(2-pyridylamino)pyrazolo[1,5-a]pyridin-5-yl]-3-pyridyl]oxy]cyclohexanol]: the IC50 on SIK2 [1] came out at 0.00176 µM. In addition, the pIC50 against SIK2 [2] was 7.47.

Take `Cc1cc(-c2ccn3nc(Nc4ccn(C)n4)cc3c2)c(O[C@H]2CC[C@@H](O)CC2)cn1` [Example 184, cis-4-[[6-methyl-4-[2-[(1-methylpyrazol-3-yl)amino]pyrazolo[1,5-a]pyridin-5-yl]-3-pyridyl]oxy]cyclohexanol]: on SIK2 [1], the IC50 is 0.00175 µM. For the same compound, at SIK2 [2], the pIC50 was 7.85.

Turning to `CC#Cc1cc(-c2ccn3nc(NC(=O)C4CC4)cc3c2)c(O[C@H]2CC[C@H](O)CC2)cn1` [Example 185, trans-N-[5-[5-(4-hydroxycyclohexoxy)-2-prop-1-ynyl-4-pyridyl]pyrazolo[1,5-a]pyridin-2-yl]cyclopropanecarboxamide], at SIK2 [1], the IC50 was found to be 0.000366 µM. Moreover, the pIC50 against SIK2 [2] was above 9.08.

On to `Cc1cc(-c2ccn3nc(Nc4cccnc4)cc3c2)c(O[C@H]2CC[C@H](O)CC2)cn1` [Example 290, (1r,4r)-4-((6-methyl-4-(2-(pyridin-3-ylamino)pyrazolo[1,5-a]pyridin-5-yl)pyridin-3-yl)oxy)cyclohexan-1-ol], for which the IC50 at SIK2 [1] is 0.00439 µM. In addition, the pIC50 against SIK2 [2] was 7.08.

Values taken from US20240158392A1 (Janssen Biotech, Inc., priority 2021, published 2024).
